{"source": "patent US4918074A", "about": "“Polyazaheterocycle compounds” (Yoshitomi Pharmaceutical Industries, Ltd., priority 1984, dated 1990)", "key": {"Rabbit aorta": {"tested_on": "Rabbit aorta", "assay": "Ca2+-agonistic and antagonistic activity in rabbit aorta", "settings": "compound 10^-6 M", "description": "Rabbit aorta were isolated and cut into ring segments of about 2 mm. These preparations were suspended in 40 ml chambers filled with Krebs-Henseleit solution bubbled with a gas mixture of 95% O2 +5% CO2 (pH 7.4) and kept at 37° C. The contractile response to [K^+ ]o (9-48 mM) was measured in the absence or presence of test compounds (1).\nThat is, at lower [K^+ ]o these compounds augmented contractile force, however, at higher [K^+ ]o they produced only relaxation of aorta. [K^+ ]o, at which conversion of the effects of compounds (10^-6 M) occurred, was as follows."}, "Papillary muscle": {"tested_on": "Papillary muscle", "assay": "Ca2+-agonistic and antagonistic action in rabbit myocardium (papillary muscle)", "settings": "compound 10^-4 M", "description": "Papillary muscle was isolated from rabbit heart and suspended in 40 ml chamber filled with Krebs-Henseleit solution ([Ca^2+ ]o was elevated to 5 mM) bubbled with a gas mixture of 95% O2 +5% CO2 and kept at 37° C. The preparation was electrically driven at a rate of 0.5 Hz and developed tension was observed. [K^+ ]o was varied from 5.9 mM to 27 mM in the absence and presence of test compounds.\n[K^+ ]o, at which conversion of the effects of compounds (10^-4 M) occurred, was as follows."}, "ddY strain mice": {"tested_on": "ddY strain mice", "assay": "Acute toxicity in mice", "format": "in vivo", "settings": "five days after administration", "source_text": "Compound (1), (10) and (23) were orally or intraperitoneally administered to ddY strain mice."}, "[1]": {"tested_on": "left ventricular dp/dt max", "assay": "Cardiotonic effects in the anesthetized dog", "format": "in vivo", "settings": "Canis lupus familiaris, iv, 300 μg/kg; read-out: Increase in dp/dt max", "description": "(§1) Adult mongrel dogs were anesthetized with sodium pentobarbital (30 mg/kg i.v.). Effects of test compounds on arterial blood pressure, coronary arterial blood flow, vertebral blood flow, renal blood flow, left ventricular dp/dt max (dp/dt max) and urine volume were observed. The compounds were administered intravenously (i.v.) or intraduodenally (i.d.)."}, "[2]": {"tested_on": "left ventricular dp/dt max", "assay": "Left ventricular dp/dt max after injection into left coronary artery of anesthetized dogs", "format": "in vivo", "settings": "intracoronary injection, anesthetized dog; dose to increase dp/dt max by 30% of effect of isoproterenol (0.1 μg)", "description": "(§2) Dogs of either sex were anesthetized with sodium pentobarbital (30 mg/kg i.v.). Heparin (500 U/kg i.v.) was administered before making preparation. Under artificial respiration (18 strokes/min, 20 ml/kg tidal volume), left ventricular dp/dt max, and left coronary blood flow were measured (1). Test compounds were injected into the left coronary artery in a volume of 10 or 30 μl. The effects of compounds on coronary blood flow were observed and presented generally as ED50, a dose required to increase coronary blood flow by a half of the effects of nifedipine (3 μg). Similarly, the effects on dp/dt max were observed and shown as ED30, a dose required to increase dp/dt max by 30% of the efffects of isoproterenol (0.1 μg)."}, "left coronary blood flow": {"tested_on": "left coronary blood flow", "assay": "Coronary blood flow after injection into left coronary artery of anesthetized dogs", "format": "in vivo", "settings": "intracoronary injection, anesthetized dog; dose to increase CBF by half of the effect of nifedipine (3 μg)", "description": "as §2"}, "arterial blood pressure": {"tested_on": "arterial blood pressure", "assay": "Hypotensive effects in the anesthetized dog", "format": "in vivo", "settings": "Canis lupus familiaris, iv, read-out: Hypotensive effect; for inhibition in vivo at 0.3 mg/kg: 300 μg/kg", "description": "as §1"}, "[3]": {"tested_on": "coronary arterial blood flow", "assay": "Coronary vasodilating effects in the anesthetized dog", "format": "in vivo", "settings": "Canis lupus familiaris, iv, read-out: Increase in coronary blood flow; for change in vivo at 0.3 mg/kg: 300 μg/kg", "description": "as §1"}, "[4]": {"tested_on": "blood pressure, coronary, renal and heart function", "assay": "Cardiovascular and renal activity in words", "format": "in vivo"}, "[5]": {"assay": "Oral bioavailability in words", "format": "in vivo"}}, "data": [{"smiles": "CCOC(=O)C1=C(C)Nc2ccnn2C1c1ccccc1C(F)(F)F", "note": "(stereo not drawn) [(1), 6-Ethoxycarbonyl-5-methyl-7-(2-trifluoromethylphenyl)-4,7-dihydropyrazolo[1,5-a]pyrimidine]", "values": [{"measurement": "[K+]o at which conversion of Ca2+-agonistic to Ca2+-antagonistic action occurred", "setting": "Rabbit aorta", "result": 23, "unit": "mM"}, {"measurement": "[K+]o at which conversion of Ca2+-agonistic to Ca2+-antagonistic action occurred", "setting": "Papillary muscle", "result": 16, "unit": "mM"}, {"measurement": "Survival", "setting": "ddY strain mice; intraperitoneal, 250 mg/kg", "result": "All mice survived"}, {"measurement": "Survival", "setting": "ddY strain mice; oral, 1,000 mg/kg", "result": "All mice survived"}]}, {"smiles": "CC1=C(C(=O)OC(C)C)C(c2ccccc2C(F)(F)F)n2nccc2N1", "note": "(stereo not drawn) [(10), 6-Isopropoxycarbonyl-5-methyl-7-(2-trifluoromethylphenyl)-4,7-dihydropyrazolo[1,5-a]pyrimidine]", "values": [{"measurement": "change in vivo at 0.3 mg/kg", "setting": "[1]", "result": 39, "unit": "%"}, {"measurement": "[K+]o at which conversion of Ca2+-agonistic to Ca2+-antagonistic action occurred", "setting": "Rabbit aorta", "result": 21, "unit": "mM"}, {"measurement": "[K+]o at which conversion of Ca2+-agonistic to Ca2+-antagonistic action occurred", "setting": "Papillary muscle", "result": 15, "unit": "mM"}, {"measurement": "Increase in dp/dt max ED30", "setting": "[2]", "result": 71, "unit": "µg"}, {"measurement": "Increase in CBF ED50", "setting": "left coronary blood flow", "result": 5.7, "unit": "µg"}, {"measurement": "inhibition in vivo at 0.3 mg/kg", "setting": "arterial blood pressure", "result": 31, "unit": "%"}, {"measurement": "Survival", "setting": "ddY strain mice; intraperitoneal, 250 mg/kg", "result": "All mice survived"}, {"measurement": "Survival", "setting": "ddY strain mice; oral, 1,000 mg/kg", "result": "All mice survived"}, {"measurement": "change in vivo at 0.3 mg/kg", "setting": "[3]", "result": 132, "unit": "%"}]}, {"smiles": "CC1=C(C(=O)OC(C)(C)C)C(c2ccccc2C(F)(F)F)n2nccc2N1", "note": "(stereo not drawn) [(13), 6-tert-Butoxycarbonyl-5-methyl-7-(2-trifluoromethylphenyl)-4,7-dihydropyrazolo[1,5-a]pyrimidine]", "values": [{"measurement": "change in vivo at 0.3 mg/kg", "setting": "[1]", "result": 39, "unit": "%"}, {"measurement": "[K+]o at which conversion of Ca2+-agonistic to Ca2+-antagonistic action occurred", "setting": "Rabbit aorta", "result": 24, "unit": "mM"}, {"measurement": "[K+]o at which conversion of Ca2+-agonistic to Ca2+-antagonistic action occurred", "setting": "Papillary muscle", "result": 14, "unit": "mM"}, {"measurement": "Increase in dp/dt max ED30", "setting": "[2]", "result": 70, "unit": "µg"}, {"measurement": "Increase in CBF ED50", "setting": "left coronary blood flow", "result": 22, "unit": "µg"}, {"measurement": "change in vivo at 0.3 mg/kg", "setting": "[3]", "result": 34, "unit": "%"}]}, {"smiles": "CC1=C(C(=O)OC2CCCC2)C(c2ccccc2C(F)(F)F)n2nccc2N1", "note": "(stereo not drawn) [(15), 6-Cyclopentyloxycarbonyl-5-methyl-7-(2-trifluoromethylphenyl)-4,7-dihydropyrazolo[1,5-a]pyrimidine]", "values": [{"measurement": "change in vivo at 0.3 mg/kg", "setting": "[1]", "result": 83, "unit": "%"}, {"measurement": "[K+]o at which conversion of Ca2+-agonistic to Ca2+-antagonistic action occurred", "setting": "Rabbit aorta", "result": 20, "unit": "mM"}, {"measurement": "[K+]o at which conversion of Ca2+-agonistic to Ca2+-antagonistic action occurred", "setting": "Papillary muscle", "result": 18, "unit": "mM"}, {"measurement": "Increase in dp/dt max ED30", "setting": "[2]", "result": 198, "unit": "µg"}, {"measurement": "Increase in CBF ED50", "setting": "left coronary blood flow", "result": 1.8, "unit": "µg"}, {"measurement": "inhibition in vivo at 0.3 mg/kg", "setting": "arterial blood pressure", "result": 20, "unit": "%"}, {"measurement": "change in vivo at 0.3 mg/kg", "setting": "[3]", "result": 125, "unit": "%"}]}, {"smiles": "CC1=C(C(=O)OC(C)C)C(c2ccccc2F)n2nccc2N1", "note": "(stereo not drawn) [(23), 7-(2-Fluorophenyl)-6-isopropoxycarbonyl-5-methyl-4,7-dihydropyrazolo[1,5-a]pyrimidine]", "values": [{"measurement": "change in vivo at 0.3 mg/kg", "setting": "[1]", "result": 44, "unit": "%"}, {"measurement": "[K+]o at which conversion of Ca2+-agonistic to Ca2+-antagonistic action occurred", "setting": "Rabbit aorta", "result": 19, "unit": "mM"}, {"measurement": "[K+]o at which conversion of Ca2+-agonistic to Ca2+-antagonistic action occurred", "setting": "Papillary muscle", "result": 12, "unit": "mM"}, {"measurement": "Increase in dp/dt max ED30", "setting": "[2]", "result": 71, "unit": "µg"}, {"measurement": "Increase in CBF ED50", "setting": "left coronary blood flow", "result": 15, "unit": "µg"}, {"measurement": "inhibition in vivo at 0.3 mg/kg", "setting": "arterial blood pressure", "result": 32, "unit": "%"}, {"measurement": "Survival", "setting": "ddY strain mice; intraperitoneal, 250 mg/kg", "result": "All mice survived"}, {"measurement": "Survival", "setting": "ddY strain mice; oral, 1,000 mg/kg", "result": "All mice survived"}, {"measurement": "change in vivo at 0.3 mg/kg", "setting": "[3]", "result": 157, "unit": "%"}]}, {"smiles": "CC1=C(C(=O)OC2CCCC2)C(c2ccccc2F)n2nccc2N1", "note": "(stereo not drawn) [(25), 6-Cyclopentyloxycarbonyl-7-(2-fluorophenyl)-5-methyl-4,7-dihydropyrazolo[1,5-a]pyrimidine]", "values": [{"measurement": "[K+]o at which conversion of Ca2+-agonistic to Ca2+-antagonistic action occurred", "setting": "Papillary muscle", "result": 15, "unit": "mM"}, {"measurement": "Increase in dp/dt max ED30", "setting": "[2]", "result": 164, "unit": "µg"}, {"measurement": "Increase in CBF ED50", "setting": "left coronary blood flow", "result": 28, "unit": "µg"}]}, {"smiles": "CC1=C(C(=O)OC(C)C)C(c2ccccc2Br)n2nccc2N1", "note": "(stereo not drawn) [(27), 7-(2-Bromophenyl)-6-isopropoxycarbonyl-5-methyl-4,7-dihydropyrazolo[1,5-a]pyrimidine]", "values": [{"measurement": "[K+]o at which conversion of Ca2+-agonistic to Ca2+-antagonistic action occurred", "setting": "Rabbit aorta", "result": 22, "unit": "mM"}, {"measurement": "[K+]o at which conversion of Ca2+-agonistic to Ca2+-antagonistic action occurred", "setting": "Papillary muscle", "result": 12, "unit": "mM"}, {"measurement": "Increase in dp/dt max ED30", "setting": "[2]", "result": 103, "unit": "µg"}, {"measurement": "Increase in CBF ED50", "setting": "left coronary blood flow", "result": 7, "unit": "µg"}, {"measurement": "inhibition in vivo at 0.03 mg/kg", "setting": "arterial blood pressure; 30 μg/kg", "result": 20, "unit": "%"}, {"measurement": "change in vivo at 0.03 mg/kg", "setting": "[3]; 30 μg/kg", "result": 37, "unit": "%"}]}, {"smiles": "CC1=C(C(=O)OC(C)C)C(c2ccccc2C)n2nccc2N1", "note": "(stereo not drawn) [(30), 6-Isopropoxycarbonyl-5-methyl-7-(2-methylphenyl)-4,7-dihydropyrazolo[1,5-a]pyrimidine]", "values": [{"measurement": "change in vivo at 0.3 mg/kg", "setting": "[1]", "result": 46, "unit": "%"}, {"measurement": "[K+]o at which conversion of Ca2+-agonistic to Ca2+-antagonistic action occurred", "setting": "Rabbit aorta", "result": 28, "unit": "mM"}, {"measurement": "[K+]o at which conversion of Ca2+-agonistic to Ca2+-antagonistic action occurred", "setting": "Papillary muscle", "result": 15, "unit": "mM"}, {"measurement": "change in vivo at 0.3 mg/kg", "setting": "[3]", "result": 47, "unit": "%"}]}, {"smiles": "CC(C)OC(=O)C1=C(COCCN)Nc2c(C#N)cnn2C1c1cccc(F)c1F", "note": "(stereo not drawn) [isopropyl 5-(2-aminoethoxymethyl)-3-cyano-7-(2,3-difluorophenyl)-4,7-dihydropyrazolo[1,5-a]pyrimidine-6-carboxylate]", "values": [{"measurement": "Coronary vasodilating activity", "setting": "[4]", "result": "high-selective coronary vasodilating activity"}, {"measurement": "Diuretic activity", "setting": "[4]", "result": "potent diuretic activity"}, {"measurement": "Heart-depressive activity", "setting": "[4]", "result": "weak heart-depressive activity"}, {"measurement": "Hypotensive activity", "setting": "[4]", "result": "mild and long-lasting hypotensive activity"}, {"measurement": "Renal blood flow increasing activity", "setting": "[4]", "result": "renal blood flow increasing activity"}, {"measurement": "Bioavailability by oral administration", "setting": "[5]", "result": "higher bioavailability by the oral administration"}]}]}
